Experimental data from patent US20240287046A1, “COMPOUNDS AND RADIOLIGANDS FOR TARGETING NEUROTENSIN RECEPTOR AND USES THEREOF” (Full-Life Technologies HK Limited, priority 2022, published 2024).

System: ASPC-1 tumor
Assay: In vivo efficacy of ^225Ac therapy
Conditions: ASPC-1 tumor-bearing mice; for tumor inhibition compared to the vehicle group: single dose of 18, 37 or 74 KBq; for dose sufficient to achieve the maximal effect: single dose
Experimental: In vivo efficacy of the ^177Lu labeled complexes and ^225Ac labeled complexes of the present application was evaluated in ASPC-1 tumor-bearing mice. For ^177Lu therapy study, animals in each group were dosed with vehicle or 0.6 mCi activity of the radiolabeled complexes at Day 1 and Day 5, respectively. For ^225Ac therapy studies, animals in each group were administered with a single dose of vehicle, 18, 37 or 74 KBq activity of the radiolabeled complexes, respectively.
The tumor volume (V) was determined according to the equation (V=[…]×L×W×H) at different time points, where L is the longest axis and W is the perpendicular axis to L, and H is the perpendicular axis to L and W plane. Endpoint (sacrifice) criteria were defined as either when the tumor volume exceeded 1.5 cm^3, or 20% body weight loss.

Compound	tumor inhibition compared to the vehicle group	dose sufficient to achieve the maximal effect
COc1cccc(OC)c1-c1cc(C(=O)NC2(C(=O)O)C3CC4CC(C3)CC2C4)nn1-c1ccc(NC(=O)CCCN(C)CCCN(C)C(=O)CN2CCN(CC(=O)[O-])CCN(CC(=O)[O-])CCN(CC(=O)[O-])CC2)cc1C(C)C.[225Ac+3] (stereo not shown) [^225Ac—I-5]	significant tumor inhibition	37 KBq
COc1cccc(OC)c1-c1cc(C(=O)NC2(C(=O)O)C3CC4CC(C3)CC2C4)nn1-c1ccc(OCCCN(C)CCCN(C)C(=O)CN2CCN(CC(=O)[O-])CCN(CC(=O)[O-])CCN(CC(=O)[O-])CC2)cc1C(C)C.[225Ac+3] (stereo not shown) [^225Ac—I-7]	significant tumor inhibition	37 KBq
